# Results published in ChEMBL document CHEMBL1201862, “PubChem BioAssay data set” (2004).
#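 How tested: cells in 96-well plates exposed to compound for 48 hours at five concentrations. GI50: concentration for 50% inhibition of growth.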 The source made the active and inactive calls. No stated cut-off is given here; in the data, active = GI50 up to about 1.1 µM and inactive = higher.
# What was measured:
# Test in all cases: DTP human tumour cell line panel, 48 h
# 786-0 = system: 786-0
# A498 = system: A498
# A549 = system: A549
# ACHN = system: ACHN
# CAKI-1 = system: CAKI-1
# CCRF-CEM = system: CCRF-CEM
# COLO 205 = system: COLO 205
# DLD-1 = system: DLD-1
# DMS-114 = system: DMS-114
# DMS-273 = system: DMS-273
# EKVX = system: EKVX
# HCC 2998 = system: HCC 2998
# HCT-116 = system: HCT-116
# HCT-15 = system: HCT-15
# HL-60 = system: HL-60
# HOP-18 = system: HOP-18
# HOP-62 = system: HOP-62
# HOP-92 = system: HOP-92
# HT-29 = system: HT-29
# IGROV-1 = system: IGROV-1
# K562 = system: K562
# KM-20L2 = system: KM-20L2
# KM12 = system: KM12
# LOX IMVI = system: LOX IMVI
# M14 = system: M14
# M19-MEL = system: M19-MEL
# MOLT-4 = system: MOLT-4
# Malme-3M = system: Malme-3M
# NCI-H226 = system: NCI-H226
# NCI-H23 = system: NCI-H23
# NCI-H460 = system: NCI-H460
# NCI-H522 = system: NCI-H522
# OVCAR-3 = system: OVCAR-3
# OVCAR-4 = system: OVCAR-4
# OVCAR-5 = system: OVCAR-5
# OVCAR-8 = system: OVCAR-8
# RPMI-8226 = system: RPMI-8226
# RXF 393 = system: RXF 393
# SF-268 = system: SF-268
# SF-295 = system: SF-295
# SF-539 = system: SF-539
# SK-MEL-28 = system: SK-MEL-28
# SK-MEL-2 = system: SK-MEL-2
# SK-MEL-5 = system: SK-MEL-5
# SK-OV-3 = system: SK-OV-3
# SN12C = system: SN12C
# SNB-19 = system: SNB-19
# SNB-75 = system: SNB-75
# SNB-78 = system: SNB-78
# SR = system: SR
# SW-620 = system: SW-620
# TK-10 = system: TK-10
# U-251 = system: U-251
# UACC-257 = system: UACC-257
# UACC-62 = system: UACC-62
# UO-31 = system: UO-31
# XF498 = system: XF498
# MCF7 = system: MCF7
# NCI/ADR-RES = system: NCI/ADR-RES
# LXFL 529 = system: LXFL 529
structure (smiles),measurement,setting,value
CCCOP(=S)(N1CC1)N1CC1,GI50,786-0,> 100 µM (inactive)
same,GI50,A498,> 100 µM (inactive)
same,GI50,A549,> 100 µM (inactive)
same,GI50,ACHN,> 100 µM (inactive)
same,GI50,CAKI-1,> 100 µM (inactive)
same,GI50,CCRF-CEM,> 100 µM (inactive)
same,GI50,COLO 205,> 100 µM (inactive)
same,GI50,DLD-1,> 100 µM (inactive)
same,GI50,DMS-114,> 100 µM (inactive)
same,GI50,DMS-273,> 100 µM (inactive)
same,GI50,EKVX,> 100 µM (inactive)
same,GI50,HCC 2998,> 100 µM (inactive)
same,GI50,HCT-116,> 100 µM (inactive)
same,GI50,HCT-15,> 100 µM
same,GI50,HL-60,> 100 µM (inactive)
same,GI50,HOP-18,40.7 µM (inactive)
same,GI50,HOP-62,> 100 µM (inactive)
same,GI50,HOP-92,> 100 µM (inactive)
same,GI50,HT-29,> 100 µM (inactive)
same,GI50,IGROV-1,> 100 µM (inactive)
same,GI50,K562,> 100 µM (inactive)
same,GI50,KM-20L2,> 100 µM (inactive)
same,GI50,KM12,> 100 µM (inactive)
same,GI50,LOX IMVI,> 100 µM (inactive)
same,GI50,M14,> 100 µM (inactive)
same,GI50,M19-MEL,> 100 µM (inactive)
same,GI50,MOLT-4,> 100 µM (inactive)
same,GI50,Malme-3M,> 100 µM (inactive)
same,GI50,NCI-H226,75.9 µM (inactive)
same,GI50,NCI-H23,> 100 µM (inactive)
same,GI50,NCI-H460,> 100 µM (inactive)
same,GI50,NCI-H522,> 100 µM (inactive)
same,GI50,OVCAR-3,> 100 µM (inactive)
same,GI50,OVCAR-4,> 100 µM (inactive)
same,GI50,OVCAR-5,> 100 µM (inactive)
same,GI50,OVCAR-8,> 100 µM (inactive)
same,GI50,RPMI-8226,> 100 µM (inactive)
same,GI50,RXF 393,> 100 µM (inactive)
same,GI50,SF-268,> 100 µM (inactive)
same,GI50,SF-295,> 100 µM (inactive)
same,GI50,SF-539,> 100 µM (inactive)
same,GI50,SK-MEL-28,> 100 µM (inactive)
same,GI50,SK-MEL-2,> 100 µM (inactive)
same,GI50,SK-MEL-5,> 100 µM (inactive)
same,GI50,SK-OV-3,> 100 µM (inactive)
same,GI50,SN12C,> 100 µM (inactive)
same,GI50,SNB-19,> 100 µM (inactive)
same,GI50,SNB-75,48.3 µM (inactive)
same,GI50,SNB-78,> 100 µM (inactive)
same,GI50,SR,> 100 µM (inactive)
same,GI50,SW-620,> 100 µM (inactive)
same,GI50,TK-10,> 100 µM (inactive)
same,GI50,U-251,> 100 µM (inactive)
same,GI50,UACC-257,24.8 µM (inactive)
same,GI50,UACC-62,> 100 µM (inactive)
same,GI50,UO-31,> 100 µM (inactive)
same,GI50,XF498,> 100 µM (inactive)
NCC(Cl)C(O)c1c[nH]c(N)n1 (stereo not given),GI50,A498,0.147 µM (active)
same,GI50,A549,0.136 µM (active)
same,GI50,CAKI-1,0.269 µM (active)
same,GI50,CCRF-CEM,1.58 µM (inactive)
same,GI50,COLO 205,0.306 µM (active)
same,GI50,DLD-1,1.84 µM (inactive)
same,GI50,DMS-114,1.54 µM (inactive)
same,GI50,DMS-273,2.05 µM (inactive)
same,GI50,EKVX,0.502 µM (active)
same,GI50,HCC 2998,0.625 µM (active)
same,GI50,HCT-116,0.392 µM (active)
same,GI50,HCT-15,3.48 µM
same,GI50,HL-60,3.46 µM (inactive)
same,GI50,HOP-18,0.275 µM (active)
same,GI50,HOP-62,0.371 µM (active)
same,GI50,HOP-92,5.46 µM (inactive)
same,GI50,HT-29,0.454 µM (active)
same,GI50,IGROV-1,0.245 µM (active)
same,GI50,K562,2.38 µM (inactive)
same,GI50,KM-20L2,0.596 µM (active)
same,GI50,KM12,0.117 µM (active)
same,GI50,LOX IMVI,1.24 µM (inactive)
same,GI50,M19-MEL,2.52 µM (inactive)
same,GI50,MCF7,2.77 µM (inactive)
same,GI50,MOLT-4,0.53 µM (active)
same,GI50,Malme-3M,1.43 µM (inactive)
same,GI50,NCI-H226,2.15 µM (inactive)
same,GI50,NCI-H23,1.49 µM (inactive)
same,GI50,NCI-H460,2.14 µM (inactive)
same,GI50,NCI-H522,1.93 µM (inactive)
same,GI50,NCI/ADR-RES,0.596 µM (active)
same,GI50,OVCAR-3,2.03 µM (inactive)
same,GI50,OVCAR-4,0.668 µM (active)
same,GI50,OVCAR-5,2.01 µM (inactive)
same,GI50,OVCAR-8,0.546 µM (active)
same,GI50,RPMI-8226,0.237 µM (active)
same,GI50,RXF 393,1.19 µM (inactive)
same,GI50,SF-268,1.38 µM (inactive)
same,GI50,SF-295,4.31 µM (inactive)
same,GI50,SF-539,0.473 µM (active)
same,GI50,SK-MEL-28,3.61 µM (inactive)
same,GI50,SK-MEL-2,3.56 µM (inactive)
same,GI50,SK-MEL-5,7.33 µM (inactive)
same,GI50,SK-OV-3,0.533 µM (active)
same,GI50,SN12C,2.12 µM (inactive)
same,GI50,SNB-19,1.16 µM (inactive)
same,GI50,SNB-75,1.84 µM (inactive)
same,GI50,SNB-78,9.79 µM (inactive)
same,GI50,SW-620,0.37 µM (active)
same,GI50,U-251,1.03 µM (active)
same,GI50,UACC-257,3.05 µM (inactive)
same,GI50,UACC-62,3.01 µM (inactive)
same,GI50,UO-31,0.822 µM (active)
same,GI50,XF498,2.45 µM (inactive)
O=C(Nc1ccccc1)Oc1ccccc1C1CCCCC1,GI50,786-0,17.2 µM (inactive)
same,GI50,A498,30.6 µM (inactive)
same,GI50,A549,20.9 µM (inactive)
same,GI50,CCRF-CEM,19.5 µM (inactive)
same,GI50,COLO 205,15.8 µM (inactive)
same,GI50,DLD-1,13.9 µM (inactive)
same,GI50,DMS-114,12 µM (inactive)
same,GI50,DMS-273,15.2 µM (inactive)
same,GI50,EKVX,20.1 µM (inactive)
same,GI50,HCC 2998,25.9 µM (inactive)
same,GI50,HCT-116,21.9 µM (inactive)
same,GI50,HCT-15,16.6 µM
same,GI50,HL-60,9.71 µM (inactive)
same,GI50,HOP-18,29.3 µM (inactive)
same,GI50,HOP-62,18.1 µM (inactive)
same,GI50,HOP-92,10.4 µM (inactive)
same,GI50,HT-29,20.4 µM (inactive)
same,GI50,IGROV-1,24.8 µM (inactive)
same,GI50,K562,17.9 µM (inactive)
same,GI50,KM12,26.8 µM (inactive)
same,GI50,LOX IMVI,13.8 µM (inactive)
same,GI50,LXFL 529,22.5 µM (inactive)
same,GI50,M14,23.6 µM (inactive)
same,GI50,M19-MEL,16 µM (inactive)
same,GI50,MOLT-4,14.9 µM (inactive)
same,GI50,Malme-3M,21.1 µM (inactive)
same,GI50,NCI-H226,13.2 µM (inactive)
same,GI50,NCI-H23,14.4 µM (inactive)
same,GI50,NCI-H460,20 µM (inactive)
same,GI50,OVCAR-3,12.7 µM (inactive)
same,GI50,OVCAR-4,14.6 µM (inactive)
same,GI50,OVCAR-5,11.8 µM (inactive)
same,GI50,OVCAR-8,29.6 µM (inactive)
same,GI50,RPMI-8226,19 µM (inactive)
same,GI50,RXF 393,2.96 µM (inactive)
same,GI50,SF-268,36.3 µM (inactive)
same,GI50,SF-295,17.3 µM (inactive)
same,GI50,SF-539,25.8 µM (inactive)
same,GI50,SK-MEL-28,29.6 µM (inactive)
same,GI50,SK-MEL-5,13.5 µM (inactive)
same,GI50,SK-OV-3,44.5 µM (inactive)
same,GI50,SN12C,18.9 µM (inactive)
same,GI50,SNB-19,63.1 µM (inactive)
same,GI50,SNB-75,6.38 µM (inactive)
same,GI50,SNB-78,17.7 µM (inactive)
same,GI50,SR,14.8 µM (inactive)
same,GI50,SW-620,25.5 µM (inactive)
same,GI50,TK-10,28.8 µM (inactive)
same,GI50,U-251,12 µM (inactive)
same,GI50,UACC-257,16.9 µM (inactive)
same,GI50,UACC-62,25.5 µM (inactive)
same,GI50,UO-31,13.1 µM (inactive)
same,GI50,XF498,19 µM (inactive)
Nc1ncnc2c1ncn2C1C(O)C=C(CO)C1O (stereo not given),GI50,A549,> 625 µM (inactive)
same,GI50,CAKI-1,> 625 µM (inactive)
same,GI50,COLO 205,> 625 µM (inactive)
same,GI50,DLD-1,> 625 µM (inactive)
same,GI50,DMS-114,> 625 µM (inactive)
same,GI50,DMS-273,> 625 µM (inactive)
same,GI50,HCC 2998,> 625 µM (inactive)
same,GI50,HCT-116,> 625 µM (inactive)
same,GI50,HCT-15,> 625 µM
same,GI50,HL-60,467 µM (inactive)
same,GI50,HOP-18,> 625 µM (inactive)
same,GI50,HOP-62,> 625 µM (inactive)
same,GI50,HOP-92,568 µM (inactive)
same,GI50,HT-29,> 625 µM (inactive)
same,GI50,IGROV-1,> 625 µM (inactive)
same,GI50,KM-20L2,> 625 µM (inactive)
same,GI50,KM12,> 625 µM (inactive)
same,GI50,LOX IMVI,> 625 µM (inactive)
same,GI50,M19-MEL,> 625 µM (inactive)
same,GI50,MCF7,> 625 µM (inactive)
same,GI50,Malme-3M,> 625 µM (inactive)
same,GI50,NCI-H226,> 625 µM (inactive)
same,GI50,NCI-H460,> 625 µM (inactive)
same,GI50,NCI/ADR-RES,> 625 µM (inactive)
same,GI50,OVCAR-3,> 625 µM (inactive)
same,GI50,OVCAR-4,> 625 µM (inactive)
same,GI50,OVCAR-8,> 625 µM (inactive)
same,GI50,RPMI-8226,> 625 µM (inactive)
same,GI50,SF-268,> 625 µM (inactive)
same,GI50,SF-295,> 625 µM (inactive)
same,GI50,SF-539,> 625 µM (inactive)
same,GI50,SK-MEL-2,> 625 µM (inactive)
same,GI50,SK-MEL-5,> 625 µM (inactive)
same,GI50,SK-OV-3,> 625 µM (inactive)
same,GI50,SN12C,> 625 µM (inactive)
same,GI50,SNB-19,> 625 µM (inactive)
same,GI50,SNB-78,> 625 µM (inactive)
same,GI50,SW-620,> 625 µM (inactive)
same,GI50,UACC-62,> 625 µM (inactive)
same,GI50,UO-31,> 625 µM (inactive)
same,GI50,XF498,< 0.0625 µM (active)
